One data set has as its target T1, wildtype human LRRK2 (Homo sapiens, UniProt Q5S007).
T1 construct: human LRRK2 protein fragment encompassing amino acids 1326 to 2527; GST; made in house
T1 sequence (Q5S007 1326-2527): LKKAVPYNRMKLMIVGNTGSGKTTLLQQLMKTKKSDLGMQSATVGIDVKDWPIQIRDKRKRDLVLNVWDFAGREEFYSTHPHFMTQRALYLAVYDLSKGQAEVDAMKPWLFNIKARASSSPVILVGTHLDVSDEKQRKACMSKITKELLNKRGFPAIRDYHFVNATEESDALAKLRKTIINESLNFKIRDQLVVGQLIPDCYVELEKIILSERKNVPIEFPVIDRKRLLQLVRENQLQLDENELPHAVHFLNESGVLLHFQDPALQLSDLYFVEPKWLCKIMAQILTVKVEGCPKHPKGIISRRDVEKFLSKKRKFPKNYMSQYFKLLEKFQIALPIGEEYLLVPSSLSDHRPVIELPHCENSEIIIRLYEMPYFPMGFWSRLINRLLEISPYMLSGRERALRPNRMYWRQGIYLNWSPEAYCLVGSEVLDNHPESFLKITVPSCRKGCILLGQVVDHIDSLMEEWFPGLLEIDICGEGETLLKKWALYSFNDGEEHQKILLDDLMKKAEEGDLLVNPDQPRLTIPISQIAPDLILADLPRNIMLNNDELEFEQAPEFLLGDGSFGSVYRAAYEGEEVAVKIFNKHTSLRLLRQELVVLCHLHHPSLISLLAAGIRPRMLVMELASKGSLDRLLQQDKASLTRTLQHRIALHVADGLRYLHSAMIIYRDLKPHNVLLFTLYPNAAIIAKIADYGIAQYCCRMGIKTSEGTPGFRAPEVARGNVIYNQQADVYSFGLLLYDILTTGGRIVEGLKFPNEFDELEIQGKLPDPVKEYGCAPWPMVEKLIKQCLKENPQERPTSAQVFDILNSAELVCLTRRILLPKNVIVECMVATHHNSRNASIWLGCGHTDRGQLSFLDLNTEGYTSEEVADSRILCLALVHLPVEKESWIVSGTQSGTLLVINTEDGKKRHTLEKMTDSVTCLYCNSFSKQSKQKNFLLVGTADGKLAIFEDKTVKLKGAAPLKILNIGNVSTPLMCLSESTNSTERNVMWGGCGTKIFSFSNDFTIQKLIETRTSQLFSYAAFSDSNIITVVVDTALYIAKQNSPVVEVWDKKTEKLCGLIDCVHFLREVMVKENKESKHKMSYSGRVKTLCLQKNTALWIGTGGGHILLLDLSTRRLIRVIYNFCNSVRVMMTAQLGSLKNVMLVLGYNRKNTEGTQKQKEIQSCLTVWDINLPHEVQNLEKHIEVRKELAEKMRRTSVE
The experiment in a line: Adapta assay, inhibition of wildtype human LRRK2 kinase fragment with LRRKtide. The data set is classed as biochemical.

The next data set concerns the target ERK2 (Homo sapiens, UniProt P28482). The experiment in a line: Kinase specificity, ERK2. The format is biochemical. The note with it: 100 μM ATP.
In the next data set the target is Cdk1 (Homo sapiens, UniProt P06493). Kind of data set: Kinase specificity, Cdk1. The note with it: 100 μM ATP. The format is biochemical.
Cdk1, sequence (P06493 whole entry, species assumed): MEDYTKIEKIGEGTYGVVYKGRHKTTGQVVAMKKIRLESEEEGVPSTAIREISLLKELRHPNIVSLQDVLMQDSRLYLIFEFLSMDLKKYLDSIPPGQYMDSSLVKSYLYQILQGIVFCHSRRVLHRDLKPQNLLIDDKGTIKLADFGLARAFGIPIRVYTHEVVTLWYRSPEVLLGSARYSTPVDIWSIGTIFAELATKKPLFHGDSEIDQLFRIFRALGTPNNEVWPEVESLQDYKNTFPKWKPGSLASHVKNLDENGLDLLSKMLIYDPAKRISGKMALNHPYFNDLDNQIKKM
Cdk1, sequence (P14635 whole entry partner, species assumed): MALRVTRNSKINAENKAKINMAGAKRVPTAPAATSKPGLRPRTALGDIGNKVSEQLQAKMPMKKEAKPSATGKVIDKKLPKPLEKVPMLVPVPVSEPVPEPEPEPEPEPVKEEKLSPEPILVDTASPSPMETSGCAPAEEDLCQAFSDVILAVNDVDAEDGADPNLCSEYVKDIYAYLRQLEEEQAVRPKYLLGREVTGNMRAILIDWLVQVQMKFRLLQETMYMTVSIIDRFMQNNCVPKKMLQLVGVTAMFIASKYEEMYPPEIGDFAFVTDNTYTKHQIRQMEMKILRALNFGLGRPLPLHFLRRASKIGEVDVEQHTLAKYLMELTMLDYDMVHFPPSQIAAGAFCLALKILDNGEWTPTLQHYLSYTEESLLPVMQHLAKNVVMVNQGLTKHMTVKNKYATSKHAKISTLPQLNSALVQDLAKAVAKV
The next data set addresses GSK3. The experiment in a line: Kinase specificity, GSK3. The format is biochemical. The note with it: 100 μM ATP.
A further data set has as its target PKC. The experiment in a line: Kinase specificity, PKC. The data set is classed as biochemical. The note with it: 100 μM ATP.
The next data set concerns the target PKA. Kind of data set: Kinase specificity, PKA. The data set is classed as biochemical. The note with it: 100 μM ATP.
Another data set deals with LRRK2 (Homo sapiens, UniProt Q5S007). The note with it: Covy and Giasson 2009; Anand et al. 2009; cited from earlier work.
LRRK2, sequence (Q5S007 whole entry): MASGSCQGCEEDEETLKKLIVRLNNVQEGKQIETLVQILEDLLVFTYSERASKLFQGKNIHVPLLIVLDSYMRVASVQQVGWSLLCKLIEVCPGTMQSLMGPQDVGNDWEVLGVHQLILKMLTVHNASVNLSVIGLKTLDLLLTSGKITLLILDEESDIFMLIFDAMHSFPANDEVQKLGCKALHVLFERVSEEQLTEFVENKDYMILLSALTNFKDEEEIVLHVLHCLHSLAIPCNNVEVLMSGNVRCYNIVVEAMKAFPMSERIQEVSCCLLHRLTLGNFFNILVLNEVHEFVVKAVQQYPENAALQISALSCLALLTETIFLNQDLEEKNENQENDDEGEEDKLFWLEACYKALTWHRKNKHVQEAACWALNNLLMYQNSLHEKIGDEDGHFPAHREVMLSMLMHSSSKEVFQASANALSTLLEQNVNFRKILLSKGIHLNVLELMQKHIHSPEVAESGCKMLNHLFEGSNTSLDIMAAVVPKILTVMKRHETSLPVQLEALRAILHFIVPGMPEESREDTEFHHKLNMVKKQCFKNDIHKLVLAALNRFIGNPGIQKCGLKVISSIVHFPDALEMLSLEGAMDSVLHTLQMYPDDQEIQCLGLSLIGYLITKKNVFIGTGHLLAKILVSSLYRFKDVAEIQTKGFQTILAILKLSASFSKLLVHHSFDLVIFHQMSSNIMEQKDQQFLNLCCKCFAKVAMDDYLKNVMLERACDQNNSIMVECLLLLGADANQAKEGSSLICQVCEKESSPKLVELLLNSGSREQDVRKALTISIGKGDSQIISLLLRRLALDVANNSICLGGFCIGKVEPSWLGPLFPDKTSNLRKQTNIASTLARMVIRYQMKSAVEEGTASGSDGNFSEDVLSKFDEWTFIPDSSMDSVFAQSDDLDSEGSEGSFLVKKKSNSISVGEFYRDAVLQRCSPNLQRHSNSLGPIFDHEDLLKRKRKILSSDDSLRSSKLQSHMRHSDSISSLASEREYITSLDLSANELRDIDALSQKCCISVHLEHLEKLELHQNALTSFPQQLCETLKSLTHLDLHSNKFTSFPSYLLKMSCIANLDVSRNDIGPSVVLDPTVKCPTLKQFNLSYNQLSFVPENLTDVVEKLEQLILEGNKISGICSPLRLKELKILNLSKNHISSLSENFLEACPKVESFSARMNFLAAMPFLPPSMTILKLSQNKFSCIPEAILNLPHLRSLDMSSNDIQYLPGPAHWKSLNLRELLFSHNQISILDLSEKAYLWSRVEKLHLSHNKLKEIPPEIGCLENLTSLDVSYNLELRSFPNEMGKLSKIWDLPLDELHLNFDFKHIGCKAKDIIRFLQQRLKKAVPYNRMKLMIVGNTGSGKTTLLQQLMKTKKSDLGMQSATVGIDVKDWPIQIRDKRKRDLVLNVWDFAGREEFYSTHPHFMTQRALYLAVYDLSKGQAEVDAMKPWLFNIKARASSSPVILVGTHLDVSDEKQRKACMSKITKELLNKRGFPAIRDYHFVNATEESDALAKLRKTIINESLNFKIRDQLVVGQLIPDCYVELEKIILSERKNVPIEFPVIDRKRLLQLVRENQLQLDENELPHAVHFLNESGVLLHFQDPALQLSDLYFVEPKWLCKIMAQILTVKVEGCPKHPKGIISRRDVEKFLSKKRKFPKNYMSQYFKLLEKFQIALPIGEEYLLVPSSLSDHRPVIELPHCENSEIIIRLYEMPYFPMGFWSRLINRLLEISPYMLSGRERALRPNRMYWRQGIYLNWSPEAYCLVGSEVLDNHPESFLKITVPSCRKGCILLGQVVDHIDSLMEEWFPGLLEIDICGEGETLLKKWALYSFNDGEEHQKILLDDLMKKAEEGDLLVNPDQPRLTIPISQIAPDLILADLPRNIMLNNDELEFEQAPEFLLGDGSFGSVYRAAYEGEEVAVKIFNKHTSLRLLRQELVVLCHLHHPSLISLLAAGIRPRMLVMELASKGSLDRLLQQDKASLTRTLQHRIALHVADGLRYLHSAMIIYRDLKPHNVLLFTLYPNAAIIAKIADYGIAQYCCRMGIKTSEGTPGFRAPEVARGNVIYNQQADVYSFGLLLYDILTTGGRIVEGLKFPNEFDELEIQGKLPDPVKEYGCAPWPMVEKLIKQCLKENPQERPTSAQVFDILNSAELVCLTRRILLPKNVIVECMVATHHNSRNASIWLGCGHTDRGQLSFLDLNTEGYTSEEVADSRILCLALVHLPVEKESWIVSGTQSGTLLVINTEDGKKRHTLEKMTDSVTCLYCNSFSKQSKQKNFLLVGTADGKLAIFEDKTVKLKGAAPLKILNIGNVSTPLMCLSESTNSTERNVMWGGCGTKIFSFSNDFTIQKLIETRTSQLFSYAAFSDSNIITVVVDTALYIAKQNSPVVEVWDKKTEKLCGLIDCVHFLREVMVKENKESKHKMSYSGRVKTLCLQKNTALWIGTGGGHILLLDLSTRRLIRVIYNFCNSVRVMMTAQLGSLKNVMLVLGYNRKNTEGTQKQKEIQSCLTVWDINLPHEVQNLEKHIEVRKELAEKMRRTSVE
Data set [1] deals with R1441C LRRK2 transgenic C. elegans. The experiment in a line: Food-sensing (slowing) response in LRRK2 transgenic C. elegans. The data set is classed as in vivo. The note with it: 2 mM added to the assay, FIG. 5 inset. As for the experimental part:
Dopaminergic neurons in C. elegans are involved in food sensing behavior such that in the absence of food worms move more rapidly, as assessed by determining their bending frequency on an agar plate not supplied with food. In an established assay the animals are then exposed to food, and the difference in motility is recorded in the form of bending frequency [Sawin et al., Neuron 26, 619-631 (2000)]. […] In approximate synchrony with the dopaminergic neurodegeneration this slowing response is essentially eliminated after 4 days. […] The slowing response can be reconstituted to a substantial degree by supplementation with dopamine, confirming that the phenotype is due to loss of dopaminergic input (FIG. 5).
The clear-cut functional phenotype of this model can be used to determine the efficacy of LRRK2 kinase inhibitors and the accurate determination of their potency in a biological context. […] The potency is expressed as the half-maximal restoration of the slowing response. […]
The functional consequence of dopaminergic neurodegeneration was assayed using the food-sensing response resulting in a slowing of motility after food exposure as assessed by the frequency of body bending within 20 second intervals in groups of 10 animals [Sawin et al., Neuron 26, 619-631 (2000)]. […]

A short description of data set [2]: Lethal plasma concentration after single dosing. The note with it: read-out: LC50 as plasma concentration. The format is in vivo.

pIC50: −log10 of the molar value. Read-outs that look alike come from different tables or passages of the source. Where only a bound is given, the exact number is not on record here.

ERK2, sequence (P28482 whole entry, species assumed): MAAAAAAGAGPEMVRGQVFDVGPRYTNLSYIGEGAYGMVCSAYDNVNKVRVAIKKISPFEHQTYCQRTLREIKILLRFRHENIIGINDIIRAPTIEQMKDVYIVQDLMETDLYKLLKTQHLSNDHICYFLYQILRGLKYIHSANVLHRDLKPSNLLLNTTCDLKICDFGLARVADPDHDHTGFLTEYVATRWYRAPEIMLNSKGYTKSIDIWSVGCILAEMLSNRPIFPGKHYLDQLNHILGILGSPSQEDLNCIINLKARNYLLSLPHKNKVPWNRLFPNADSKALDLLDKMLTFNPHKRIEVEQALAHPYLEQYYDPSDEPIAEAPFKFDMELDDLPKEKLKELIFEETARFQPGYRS

As to `CNC(=O)[C@@]1(N)CC2OC1(C)n1c3ccccc3c3c4c(c5c6cc(Br)ccc6n2c5c31)C(=O)NC4` (stereo partly drawn) [Compound 14], on wildtype human LRRK2 (100 μM ATP, read-out: LRRK2), the pIC50 was 8.92.
The same measure, in the same setting: for `CC12OC(C[C@]1(N)CO)n1c3ccccc3c3c4c(c5c6ccccc6n2c5c31)CNC4=O` (stereo partly drawn) [Compound 13] the value was 9.00.
For `COC(=O)[C@@]1(O)C[C@H]2O[C@]1(C)n1c3ccccc3c3c4c(c5c6ccccc6n2c5c31)C(=O)NC4` [Compound K252a, K252a, reference compound], the pIC50 against wildtype human LRRK2 is 6.66; against ERK2, 6.92; against Cdk1 it was 6.51; against GSK3, under 5.00; on PKC, 5.30; at PKA, 5.47. In addition, the “Potency for LRRK2 inhibition lower than that of compound 5” value at wildtype human LRRK2 (direct comparison) was “more than 2 orders of magnitude”. The “Activity as inhibitor of LRRK2” value at LRRK2 is “active as inhibitors of LRRK2”.
As for `Cl.NCCc1ccc(O)c(O)c1` [dopamine hydrochloride, reference compound], in data set [1], the “Loss of the food-sensing response in impaired LRRK2 worms” value is “partially rescued”.
Turning to `CNC(=O)C1(N)CC2OC1(C)n1c3ccc(Br)cc3c3c4c(c5c6cc(Br)ccc6n2c5c31)C(=O)NC4` (stereo not drawn) [Compound 15], the pIC50 on wildtype human LRRK2 (100 μM ATP, read-out: LRRK2) is 8.82.
On to `CN[C@@H]1C[C@H]2O[C@@](C)([C@@H]1OC)n1c3ccccc3c3c4c(c5c6ccccc6n2c5c31)C(=O)NC4` [staurosporine], for which the LC50 in [2] fell in the range of 200 to 300 nM. In addition, the “Activity as inhibitor of LRRK2” value at LRRK2 is “active as inhibitors of LRRK2”.
For the compound `COC(=O)[C@@]1(N)CC2OC1(C)n1c3ccccc3c3c4c(c5c6ccccc6n2c5c31)C(=O)NC4` (stereo partly drawn) [Compound 5], the pIC50 was 9.00 on wildtype human LRRK2 (100 μM ATP, read-out: LRRK2); at least 9.00 on wildtype human LRRK2 (100 microM ATP, read-out: LRRK2 inhibitory potency (essentially receptor-limited)); 6.46 on ERK2; 6.59 against Cdk1.

(Values after patent US20100273769A1, “COMPOSITION AND METHOD FOR THE TREATMENT OF PARKINSON'S DISEASE” (priority 2009, published 2010).)
